The target in test [1] is DNA-dependent protein kinase catalytic subunit (Homo sapiens, UniProt P78527).
The target in test [2] is Phosphatidylinositol 4,5-bisphosphate 3-kinase catalytic subunit alpha isoform (Homo sapiens, UniProt P42336). The experiment in a line: Inhibition of PI3Kalpha after 80 mins.
Test [3] concerns HeLa. The experiment in a line: Potentiation of ionising radiation-induced DNA damaging activity in human HeLa cells assessed as dose modification ratio at 0.5 uM treated 1 hr before ionising radiation challenge followed by washout measured after 6 to 8 days by Giemsa staining. It counts as functional.
Test [4] has as its system HeLa. The experiment in a line: Potentiation of ionising radiation-induced DNA damaging activity in human HeLa cells assessed as dose modification ratio at 0.1 uM treated 1 hr before ionising radiation challenge followed by washout measured after 6 to 8 days by Giemsa staining. It counts as functional.

Among the data in ChEMBL document CHEMBL1667792, “DNA-dependent protein kinase (DNA-PK) inhibitors: structure-activity relationships for O-alkoxyphenylchromen-4-one probes of the ATP-binding domain” (Bioorg Med Chem Lett, 2011) are IC50 and Ratio values, retold here.

The term IC50 denotes the concentration that gives 50% inhibition. Low readings indicate greater potency in that assay, high ones weaker potency in that assay.

DNA-dependent protein kinase catalytic subunit, sequence (P78527 whole entry, canonical isoform): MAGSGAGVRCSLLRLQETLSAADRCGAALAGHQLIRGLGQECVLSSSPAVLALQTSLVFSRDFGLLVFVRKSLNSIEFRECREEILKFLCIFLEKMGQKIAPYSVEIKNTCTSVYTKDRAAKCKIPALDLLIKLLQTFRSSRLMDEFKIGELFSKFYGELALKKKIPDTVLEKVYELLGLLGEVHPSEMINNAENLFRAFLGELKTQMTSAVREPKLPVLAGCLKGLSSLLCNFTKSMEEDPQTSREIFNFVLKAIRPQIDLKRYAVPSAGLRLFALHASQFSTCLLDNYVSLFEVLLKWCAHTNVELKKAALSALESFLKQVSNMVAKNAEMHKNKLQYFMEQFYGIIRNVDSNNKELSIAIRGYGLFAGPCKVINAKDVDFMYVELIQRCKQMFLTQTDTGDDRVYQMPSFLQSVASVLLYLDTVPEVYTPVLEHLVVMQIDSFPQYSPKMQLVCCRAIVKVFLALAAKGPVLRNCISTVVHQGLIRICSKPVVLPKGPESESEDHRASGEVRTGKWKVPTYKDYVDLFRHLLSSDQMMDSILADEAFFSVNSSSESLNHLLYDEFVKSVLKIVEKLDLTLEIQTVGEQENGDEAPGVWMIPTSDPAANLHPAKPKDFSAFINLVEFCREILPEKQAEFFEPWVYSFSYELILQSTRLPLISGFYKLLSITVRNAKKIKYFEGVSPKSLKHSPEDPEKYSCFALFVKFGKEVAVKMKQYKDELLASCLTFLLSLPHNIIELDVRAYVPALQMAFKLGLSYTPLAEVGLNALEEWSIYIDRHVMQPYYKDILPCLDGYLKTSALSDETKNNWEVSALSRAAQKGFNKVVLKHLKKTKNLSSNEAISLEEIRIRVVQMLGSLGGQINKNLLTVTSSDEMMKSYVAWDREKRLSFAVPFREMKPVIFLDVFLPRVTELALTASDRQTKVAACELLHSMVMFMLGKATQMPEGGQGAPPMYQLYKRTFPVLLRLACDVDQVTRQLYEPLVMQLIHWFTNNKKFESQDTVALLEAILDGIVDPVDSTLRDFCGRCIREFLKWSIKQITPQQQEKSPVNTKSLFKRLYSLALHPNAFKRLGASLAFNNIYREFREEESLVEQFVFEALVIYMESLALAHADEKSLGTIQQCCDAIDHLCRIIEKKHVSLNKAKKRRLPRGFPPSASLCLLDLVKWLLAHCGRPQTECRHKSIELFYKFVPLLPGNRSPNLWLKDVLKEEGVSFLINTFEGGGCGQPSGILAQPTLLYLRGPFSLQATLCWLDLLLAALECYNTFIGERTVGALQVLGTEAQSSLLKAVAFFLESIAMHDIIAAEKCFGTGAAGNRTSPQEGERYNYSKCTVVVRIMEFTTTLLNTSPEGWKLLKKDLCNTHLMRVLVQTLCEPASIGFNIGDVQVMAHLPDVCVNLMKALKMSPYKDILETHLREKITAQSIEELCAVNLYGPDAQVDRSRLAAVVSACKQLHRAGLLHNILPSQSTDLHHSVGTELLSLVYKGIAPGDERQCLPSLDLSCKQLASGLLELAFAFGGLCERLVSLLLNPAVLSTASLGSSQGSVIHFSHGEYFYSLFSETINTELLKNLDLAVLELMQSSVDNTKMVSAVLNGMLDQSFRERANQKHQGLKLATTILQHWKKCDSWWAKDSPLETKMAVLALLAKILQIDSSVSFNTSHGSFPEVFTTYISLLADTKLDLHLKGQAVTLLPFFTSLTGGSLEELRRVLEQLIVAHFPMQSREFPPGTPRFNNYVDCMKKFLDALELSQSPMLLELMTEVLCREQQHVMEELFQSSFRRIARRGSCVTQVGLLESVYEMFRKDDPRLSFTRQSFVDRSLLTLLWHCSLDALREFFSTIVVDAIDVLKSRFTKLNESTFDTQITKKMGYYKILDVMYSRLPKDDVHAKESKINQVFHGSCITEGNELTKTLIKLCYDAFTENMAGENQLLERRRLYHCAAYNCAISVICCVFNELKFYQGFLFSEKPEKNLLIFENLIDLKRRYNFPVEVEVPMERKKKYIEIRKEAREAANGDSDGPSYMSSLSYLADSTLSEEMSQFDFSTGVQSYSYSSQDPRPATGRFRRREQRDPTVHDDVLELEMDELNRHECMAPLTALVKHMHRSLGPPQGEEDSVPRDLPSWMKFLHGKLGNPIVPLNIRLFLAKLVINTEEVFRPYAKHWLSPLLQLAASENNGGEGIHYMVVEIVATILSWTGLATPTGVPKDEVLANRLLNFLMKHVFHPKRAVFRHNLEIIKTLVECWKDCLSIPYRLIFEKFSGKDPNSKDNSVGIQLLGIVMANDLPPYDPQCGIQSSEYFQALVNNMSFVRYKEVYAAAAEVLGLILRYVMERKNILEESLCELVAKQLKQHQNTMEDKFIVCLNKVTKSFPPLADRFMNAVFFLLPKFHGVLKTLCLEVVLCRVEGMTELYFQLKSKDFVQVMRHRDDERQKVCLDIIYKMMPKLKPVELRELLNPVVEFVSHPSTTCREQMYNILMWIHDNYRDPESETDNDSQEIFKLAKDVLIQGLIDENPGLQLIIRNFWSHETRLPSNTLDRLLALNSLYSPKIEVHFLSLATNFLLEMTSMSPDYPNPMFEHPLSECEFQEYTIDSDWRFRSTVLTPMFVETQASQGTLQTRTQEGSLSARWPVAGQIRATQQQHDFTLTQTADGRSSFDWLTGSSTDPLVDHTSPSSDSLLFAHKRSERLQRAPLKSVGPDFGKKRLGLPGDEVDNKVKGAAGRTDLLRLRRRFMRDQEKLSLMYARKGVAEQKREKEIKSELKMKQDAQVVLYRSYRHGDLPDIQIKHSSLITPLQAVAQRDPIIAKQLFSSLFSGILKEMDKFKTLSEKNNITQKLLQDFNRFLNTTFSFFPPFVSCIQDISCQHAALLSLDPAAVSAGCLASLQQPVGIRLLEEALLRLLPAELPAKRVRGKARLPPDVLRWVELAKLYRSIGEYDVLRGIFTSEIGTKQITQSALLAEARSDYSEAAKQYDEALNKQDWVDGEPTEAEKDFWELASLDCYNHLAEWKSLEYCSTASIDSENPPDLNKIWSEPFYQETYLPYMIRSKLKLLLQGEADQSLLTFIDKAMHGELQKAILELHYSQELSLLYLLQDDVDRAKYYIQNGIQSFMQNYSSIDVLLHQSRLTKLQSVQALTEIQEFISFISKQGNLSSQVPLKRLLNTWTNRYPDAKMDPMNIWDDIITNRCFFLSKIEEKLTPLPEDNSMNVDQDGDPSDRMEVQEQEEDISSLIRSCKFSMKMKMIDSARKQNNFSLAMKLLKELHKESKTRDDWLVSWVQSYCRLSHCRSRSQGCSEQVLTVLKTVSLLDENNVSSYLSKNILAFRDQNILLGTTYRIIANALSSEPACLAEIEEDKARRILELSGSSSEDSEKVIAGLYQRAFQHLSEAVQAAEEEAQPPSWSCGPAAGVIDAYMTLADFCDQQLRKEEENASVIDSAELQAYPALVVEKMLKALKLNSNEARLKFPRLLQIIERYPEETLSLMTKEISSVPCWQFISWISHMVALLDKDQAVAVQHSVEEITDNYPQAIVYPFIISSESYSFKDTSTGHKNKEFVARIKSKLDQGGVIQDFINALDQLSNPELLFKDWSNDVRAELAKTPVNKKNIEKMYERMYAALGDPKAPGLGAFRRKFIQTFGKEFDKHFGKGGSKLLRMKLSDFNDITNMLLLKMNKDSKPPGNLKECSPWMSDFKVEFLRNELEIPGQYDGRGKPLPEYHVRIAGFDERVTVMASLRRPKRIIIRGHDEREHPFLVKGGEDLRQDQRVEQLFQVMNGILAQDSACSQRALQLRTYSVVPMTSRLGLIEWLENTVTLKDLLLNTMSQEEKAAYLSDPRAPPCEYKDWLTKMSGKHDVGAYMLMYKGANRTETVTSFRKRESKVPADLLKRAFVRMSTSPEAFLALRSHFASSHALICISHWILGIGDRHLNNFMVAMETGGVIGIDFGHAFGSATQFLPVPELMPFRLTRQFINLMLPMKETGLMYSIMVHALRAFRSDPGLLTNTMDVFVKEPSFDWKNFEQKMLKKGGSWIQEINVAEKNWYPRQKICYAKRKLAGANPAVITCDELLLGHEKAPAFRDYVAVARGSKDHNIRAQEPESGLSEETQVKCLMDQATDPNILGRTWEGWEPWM
Phosphatidylinositol 4,5-bisphosphate 3-kinase catalytic subunit alpha isoform, sequence (P42336 whole entry, canonical isoform): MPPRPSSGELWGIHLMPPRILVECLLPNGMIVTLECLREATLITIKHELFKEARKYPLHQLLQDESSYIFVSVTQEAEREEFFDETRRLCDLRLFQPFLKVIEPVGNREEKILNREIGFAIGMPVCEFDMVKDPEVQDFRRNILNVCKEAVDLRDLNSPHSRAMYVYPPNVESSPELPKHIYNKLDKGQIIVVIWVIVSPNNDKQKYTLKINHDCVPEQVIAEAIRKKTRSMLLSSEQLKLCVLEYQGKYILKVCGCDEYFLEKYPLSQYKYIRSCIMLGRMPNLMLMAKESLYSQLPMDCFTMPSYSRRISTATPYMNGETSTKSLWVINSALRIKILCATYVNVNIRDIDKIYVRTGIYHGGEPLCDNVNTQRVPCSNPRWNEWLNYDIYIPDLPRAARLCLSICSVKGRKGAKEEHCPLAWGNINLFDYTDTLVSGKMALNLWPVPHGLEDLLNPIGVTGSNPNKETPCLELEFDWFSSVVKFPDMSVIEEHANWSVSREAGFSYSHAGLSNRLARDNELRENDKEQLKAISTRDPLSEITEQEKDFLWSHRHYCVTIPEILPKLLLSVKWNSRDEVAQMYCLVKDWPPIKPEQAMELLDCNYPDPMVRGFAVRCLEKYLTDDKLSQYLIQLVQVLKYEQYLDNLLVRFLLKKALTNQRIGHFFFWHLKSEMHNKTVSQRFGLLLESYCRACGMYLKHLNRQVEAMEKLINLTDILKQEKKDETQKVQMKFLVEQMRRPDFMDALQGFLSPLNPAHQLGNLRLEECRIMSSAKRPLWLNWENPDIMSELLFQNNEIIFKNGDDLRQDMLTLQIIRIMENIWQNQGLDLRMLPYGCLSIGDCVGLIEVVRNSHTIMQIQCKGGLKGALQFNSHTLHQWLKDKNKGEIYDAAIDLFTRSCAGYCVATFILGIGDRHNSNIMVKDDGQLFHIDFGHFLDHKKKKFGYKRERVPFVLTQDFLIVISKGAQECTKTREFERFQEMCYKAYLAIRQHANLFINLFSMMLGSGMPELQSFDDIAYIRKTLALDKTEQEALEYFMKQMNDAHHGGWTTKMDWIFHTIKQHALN

`O=C(CN1CCOCC1)Nc1ccc(-c2cccc3c(=O)cc(N4CCOCC4)oc23)cc1OCC1CC1`: the IC50 is 8 nM in test [1] and 70 nM in test [2].
For `CC1(COc2cc(-c3cccc4c(=O)cc(N5CCOCC5)oc34)ccc2NC(=O)CN2CCOCC2)COC1`, in that order: 690 nM and 300 nM.
For the compound `COc1cc(-c2cccc3c(=O)cc(N4CCOCC4)oc23)ccc1NC(=O)CN1CCOCC1`, the results for the IC50 in test [1] and in test [2] were 290 nM and 350 nM, respectively.
For `O=C(CN1CCOCC1)Nc1ccc(-c2cccc3c(=O)cc(N4CCOCC4)oc23)cc1O`, in that order: 80 nM and 430 nM.
The matching figures for `CCOc1cc(-c2cccc3c(=O)cc(N4CCOCC4)oc23)ccc1NC(=O)CN1CCOCC1`: 280 nM and 470 nM.
For `CC(C)Oc1cc(-c2cccc3c(=O)cc(N4CCOCC4)oc23)ccc1NC(=O)CN1CCOCC1`, in that order: 330 nM and 290 nM.
As to `CC(C)COc1cc(-c2cccc3c(=O)cc(N4CCOCC4)oc23)ccc1NC(=O)CN1CCOCC1`, the figures for the IC50 in test [1] and in test [2] were 180 nM and 150 nM, respectively.
The matching figures for `C=CCOc1cc(-c2cccc3c(=O)cc(N4CCOCC4)oc23)ccc1NC(=O)CN1CCOCC1`: 170 nM and 150 nM.
In the case of `NC(=O)COc1cc(-c2cccc3c(=O)cc(N4CCOCC4)oc23)ccc1NC(=O)CN1CCOCC1`, the IC50 in test [1] amounted to 3300 nM; in test [2] it was 1100 nM.
On to `COCCOc1cc(-c2cccc3c(=O)cc(N4CCOCC4)oc23)ccc1NC(=O)CN1CCOCC1`, for which the IC50 was 2600 nM in test [1] and 1500 nM in test [2].
For `O=C(CN1CCOCC1)Nc1ccc(-c2cccc3c(=O)cc(N4CCOCC4)oc23)cc1OCCN1CCCC1`, in that order: greater than 10000 nM and 4400 nM.
The matching figures for `O=C(CN1CCOCC1)Nc1ccc(-c2cccc3c(=O)cc(N4CCOCC4)oc23)cc1OCC1CCC1`: 160 nM and 290 nM.
The matching figures for `O=C(CN1CCOCC1)Nc1ccc(-c2cccc3c(=O)cc(N4CCOCC4)oc23)cc1OCCC1CC1`: 500 nM and 400 nM.
Turning to `CC1(COc2cc(-c3cccc4c(=O)cc(N5CCOCC5)oc34)ccc2NC(=O)CN2CCOCC2)CCC1`, the results for the IC50 in test [1] and in test [2] were 110 nM and 270 nM, respectively.
For `O=C(CN1CCOCC1)Nc1ccc(-c2cccc3c(=O)cc(N4CCOCC4)oc23)cc1OCCO`, in that order: 1000 nM and 1600 nM.
The matching figures for `NCCOc1cc(-c2cccc3c(=O)cc(N4CCOCC4)oc23)ccc1NC(=O)CN1CCOCC1`: 12000 nM and 3000 nM.
`O=C(CN1CCOCC1)Nc1ccc(-c2cccc3c(=O)cc(N4CCOCC4)oc23)cc1-c1ccccc1`: the Ratio was 8 in test [3] and 11 in test [4]. In addition, the IC50 in test [1] amounted to 14 nM.
For the compound `O=c1cc(N2CCOCC2)oc2c(-c3cccc4c3sc3ccccc34)cccc12`, the IC50 in test [1] turned out to be 28 nM; in test [2], 130 nM.
In turn, `O=c1cc(N2CCOCC2)oc2c(-c3ccccc3)cccc12` [LY-294002] gave an IC50 in test [1] of 1300 nM.
